In paper PMC8003779, “Determination of Cytotoxic Activity of Sanguinaria canadensis Extracts against Human Melanoma Cells and Comparison of Their Cytotoxicity with Cytotoxicity of Some Anticancer Drugs” (Molecules, 2021):
Values after ≈ are worked out from the molar mass of the structure shown. Where two headings read alike, the source gives them in different places.

Legend:
[1] = source not given; cited from earlier work
A375 cells = assay: Cell viability (MTT assay), A375 melanoma cells; type: cell-based, human; settings: for IC50: Homo sapiens, read-out: IC50 ± SD for Cell Viability, A375
Text: (§1) Cytotoxicity of the plant extracts, berberine, chelerythrine, chelidonine, protopine, and sanguinarine were examined against a panel of three melanoma cell lines (A375, G-361, SK-MEL-3) characterized by different degrees of genetic complexity. Human skin fibroblasts (CRL-1474) were used in order to evaluate the effect of Saguinaria canadensis extracts against normal (i.e., non-cancerous) cells. The investigated cell lines were obtained from American Type Culture Collection (ATCC; Manassas, VA, USA). A375 and CRL-1474 cells were cultured in Dulbecco’s Modified Eagle’s Medium (DMEM) (Sigma Aldrich, St. Louis, MO, USA), supplemented with 10% heat inactivated fetal bovine serum (FBS), penicillin (100 U/mL), and streptomycin (100 µg/mL). Human melanoma SK-MEL-3 and G-361 cells were maintained in McCoy’s 5A Medium (Sigma Aldrich, St. Louis, MO, USA) supplemented with 15% (for SK-MEL-3) or 10% (for G-361) FBS, penicillin (100 U/mL), and streptomycin (100 µg/mL). The cells were maintained at 37 °C in a 5% CO2 atmosphere. The dried plant extracts and standards ([…]) were dissolved in DMSO, in order to obtain stock solutions at concentrations of 50 mg/mL. At the day of the experiment, the suspension of cells (1 × 10^5 cells/mL) in the respective medium was applied to a 96-wellplate at 100 µL per well. After 24 h of incubation, the medium was removed from the wells and replaced by increasing concentrations of plant extracts or standards in medium containing 2% FBS. The control cells were only cultured with a medium containing 2% FBS. Cytotoxicity of DMSO was also checked at concentrations present in respective dilutions of stock solutions. After 24 h of incubation, 15 µL MTT working solution (5 mg/mL in PBS) was added to each well. The plate was incubated for 3 h. Subsequently, 100 µL of 10% SDS solution was added to each well. Cells were incubated overnight at 37 °C to dissolve the precipitated formazan crystals. The concentration of the dissolved formazan was evaluated by measuring the absorbance at λ = 570 nm, using a microplate reader (Epoch, BioTek Instruments, Inc., Winooski, VT, USA). Two independent experiments were performed in triplicates. The results of the MTT assay were expressed as mean ± SD. […] IC50 values of the investigated extracts and alkaloid standards were calculated using the IC50 calculator (www.IC50.tk (accessed on 22 January 2021)).
(§2) To determine the selectivity index (SI), IC50 values for human normal fibroblasts was obtained in the same conditions as that used for cancer cell lines. Selectivity index of each compound was determined by calculating the ratio of IC50 values obtained for human normal fibroblasts and cancer cell lines.

SK-MEL-3 cells [2] = assay: Cell viability (MTT assay), SK-MEL-3 melanoma cells; type: cell-based, human; settings: for IC50: Homo sapiens, read-out: IC50 ± SD for Cell Viability, SK-MEL-3
Text: as §1, §2

G-361 cells = assay: Cell viability (MTT assay), G-361 melanoma cells; type: cell-based, human; settings: for IC50: Homo sapiens, read-out: IC50 ± SD for Cell Viability, G-361
Text: as §1, §2

[3] = test system: melanoma cell lines (A375, G-361, SK-MEL-3); assay: Cell viability (MTT assay), all three melanoma cell lines taken together; type: cell-based, human
Text: Cytotoxicity of the plant extracts, berberine, chelerythrine, chelidonine, protopine, and sanguinarine were examined against a panel of three melanoma cell lines (A375, G-361, SK-MEL-3) characterized by different degrees of genetic complexity. Human skin fibroblasts (CRL-1474) were used in order to evaluate the effect of Saguinaria canadensis extracts against normal (i.e., non-cancerous) cells. The investigated cell lines were obtained from American Type Culture Collection (ATCC; Manassas, VA, USA). A375 and CRL-1474 cells were cultured in Dulbecco’s Modified Eagle’s Medium (DMEM) (Sigma Aldrich, St. Louis, MO, USA), supplemented with 10% heat inactivated fetal bovine serum (FBS), penicillin (100 U/mL), and streptomycin (100 µg/mL). Human melanoma SK-MEL-3 and G-361 cells were maintained in McCoy’s 5A Medium (Sigma Aldrich, St. Louis, MO, USA) supplemented with 15% (for SK-MEL-3) or 10% (for G-361) FBS, penicillin (100 U/mL), and streptomycin (100 µg/mL). […] The concentration of the dissolved formazan was evaluated by measuring the absorbance at λ = 570 nm, using a microplate reader (Epoch, BioTek Instruments, Inc., Winooski, VT, USA). […] The results of the MTT assay were expressed as mean ± SD. […] IC50 values of the investigated extracts and alkaloid standards were calculated using the IC50 calculator (www.IC50.tk (accessed on 22 January 2021)).

SK-MEL-3 cells [4] = assay: Cell proliferation, BrdU incorporation assay; type: cell-based, human; settings: 24 h incubation, 0.25–100 µg/mL
Procedure: The antiproliferative effect of S. canadensis extracts was measured by means of the BrdU assay, which indicates the rate of incorporation of 5′-bromo-2′-deoxy-uridine (BrdU) during DNA biosynthesis. In brief, SK-MEL-3 cells were plated in 96-well plates (NUNC, Roskilde, Denmark) at the density of 5 × 10^4 cells/mL. The next day, cells were exposed to increased concentrations (0.25–100 µg/mL) of S. canadensis extracts or cisplatin or a fresh culture medium. Cell proliferation was examined after 24 h incubation, according to the manufacturer’s protocol (Cell Proliferation ELISA BrdU, Roche Diagnostics GmbH, Penzberg, Germany). IC50 values of the investigated extracts and cisplatin were calculated using IC50 calculator [www.IC50.tk (accessed on 11 March 2021)].

[5] = A-375, MTT, 24 h exposure, medium with 2% FBS
[6] = SK-MEL3, MTT, 24 h exposure, medium with 2% FBS
[7] = G-361, MTT, 24 h exposure, medium with 2% FBS
[8] = MTT, 24 h exposure, medium with 2% FBS

What does the source list for `COc1ccc2cc3[n+](cc2c1OC)CCc1cc2c(cc1-3)OCO2` [Berberine]?
Log P [1]: −1.3; pKa [1]: −4.4; IC50 (A375 cells; [5]): 51.6 ± 4.84 µg/mL; IC50 (SK-MEL-3 cells [2]; [6]): 41 ± 5.36 µg/mL; IC50 (G-361 cells; [7]): 21 ± 3.25 µg/mL

For `COc1ccc2c(c[n+](C)c3c4cc5c(cc4ccc23)OCO5)c1OC` [Chelerythrine], which “Log P” value [1] is on record?
Its value is −0.88.

And the pKa [1]?
Its pKa is −4.4.

What about the IC50 (A375 cells; [5]) of the same compound?
The IC50 was 0.19 ± 0.04 µg/mL.

What about the IC50 (SK-MEL-3 cells [2]; [6]) of the same compound?
The IC50 was 0.14 ± 0.004 µg/mL.

And the IC50 (G-361 cells; [7])?
The IC50 was 0.46 ± 0.07 µg/mL.

With `CN1Cc2c(ccc3c2OCO3)[C@@H]2[C@H]1c1cc3c(cc1C[C@@H]2O)OCO3` [Chelidonine] as the compound, how does the “Log P” value [1] read?
Its value is 2.05.

What about the pKa [1] of the same compound?
The pKa was 5.73.

What about the IC50 (A375 cells; A-375, 24 h) of the same compound?
The IC50 was greater than 50 µg/mL.

And the IC50 ([3]; Homo sapiens, 24 h, read-out: IC50, cell viability, across all tested melanoma cell lines, A375, G-361, SK-MEL-3)?
Its IC50 is greater than 50 µg/mL.

What about the IC50 (SK-MEL-3 cells [2]; SK-MEL3, 24 h) of the same compound?
Its IC50 is greater than 50 µg/mL.

What about the IC50 (G-361 cells; G-361, 24 h) of the same compound?
Its IC50 is greater than 50 µg/mL.

Which “IC50 ± SD for Cell Proliferation Measured by BrdU Incorporation in SK-MEL-3 Cells” value (SK-MEL-3 cells [4]) does the source give for `N.N.[Cl][Pt][Cl]` [Cisplatin] here?
The value was 24.84 ± 3.60 µg/mL.

What about the “IC50 ± SD for Cell Viability, A375” value (A375 cells; [8]) of the same compound?
The value was 10.62 ± 1.04 µg/mL.

What about the “IC50 ± SD for Cell Viability, SK-MEL-3” value (SK-MEL-3 cells [2]; [8]) of the same compound?
The value was 14.42 ± 1.61 µg/mL.

What about the “IC50 ± SD for Cell Viability, G-361” value (G-361 cells; [8]) of the same compound?
The value was 11.53 ± 1.46 µg/mL.

Which results are given for `COc1cc([C@@H]2c3cc4c(cc3[C@@H](O[C@@H]3O[C@@H]5CO[C@@H](C)O[C@H]5[C@H](O)[C@H]3O)[C@H]3COC(=O)[C@H]23)OCO4)cc(OC)c1O` [Etoposide]?
IC50 (A375 cells; [5]): 92.3 ± 4.58 µg/mL (≈ 157 µM); IC50 (SK-MEL-3 cells [2]; [6]): > 200 µg/mL; IC50 (G-361 cells; [7]): 52.3 ± 3.86 µg/mL (≈ 88.9 µM)

For `NC(=O)NO` [Hydroxyurea], which “IC50 ± SD for Cell Viability, A375” value (A375 cells; [8]) is on record?
Its value is greater than 200 µg/mL.

What about the “IC50 ± SD for Cell Viability, SK-MEL-3” value (SK-MEL-3 cells [2]; [8]) of the same compound?
Its value is greater than 200 µg/mL.

And the “IC50 ± SD for Cell Viability, G-361” value (G-361 cells; [8])?
Its value is greater than 200 µg/mL.

For `C[n+]1cc2c3c(ccc2c2ccc4cc5c(cc4c21)OCO5)OCO3` [Sanguinarine], which “Log P” value [1] is on record?
Its value is −0.94.

And the pKa [1]?
Its pKa is −4.5.

What about the IC50 (A375 cells; A-375, 24 h) of the same compound?
Its IC50 is 0.11 ± 0.003 µg/mL.

What about the IC50 (SK-MEL-3 cells [2]; SK-MEL3, 24 h) of the same compound?
The IC50 was 0.54 ± 0.16 µg/mL.

What about the IC50 (G-361 cells; G-361, 24 h) of the same compound?
Its IC50 is 0.17 ± 0.02 µg/mL.

Which “Log P” value [1] does the source give for Protopine here?
Its value is 2.59.

What about the pKa [1] of the same compound?
Its pKa is 4.95.

What about the “IC50 ± SD for Cell Viability, A375” value (A375 cells; [8]) of the same compound?
Its value is greater than 50 µg/mL.

And the “IC50, cell viability, across all tested melanoma cell lines” value ([3]; A375, G-361, SK-MEL-3, 24 h)?
The value was “more than 50 µg/mL”.

And the “IC50 ± SD for Cell Viability, SK-MEL-3” value (SK-MEL-3 cells [2]; [8])?
The value was greater than 50 µg/mL.

And the “IC50 ± SD for Cell Viability, G-361” value (G-361 cells; [8])?
Its value is greater than 50 µg/mL.
